Data published in PubChem BioAssay (NCI).
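A five-concentration, 48-hour dose response in 96-well plates underlies each endpoint, interpolated linearly between surrounding concentrations. TGI: total growth inhibition.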

Experiments:
Assay in all cases: NCI tumour cell line growth inhibition, 48 h
[1] = system: 786-0 renal
[2] = system: A498 renal
[3] = system: A549 NSCLC
[4] = system: ACHN renal
[5] = system: BT-549 breast
[6] = system: CAKI-1 renal
[7] = system: CCRF-CEM leukemia
[8] = system: COLO 205 colon
[9] = system: DU-145 prostate
[10] = system: EKVX NSCLC
[11] = system: HCC-2998 colon
[12] = system: HCT-116 colon
[13] = system: HCT-15 colon
[14] = system: HL-60(TB) leukemia
[15] = system: HOP-62 NSCLC
[16] = system: HS 578T breast
[17] = system: HT29 colon
[18] = system: IGROV1 ovarian
[19] = system: K-562 leukemia
[20] = system: KM12 colon
[21] = system: LOX IMVI melanoma
[22] = system: M14 melanoma
[23] = system: MALME-3M melanoma
[24] = system: MCF7 breast
[25] = system: MDA-MB-435
[26] = system: MDA-N
[27] = system: MOLT-4 leukemia
[28] = system: NCI-H23 lung
[29] = system: NCI-H460 lung
[30] = system: NCI-H522 lung
[31] = system: NCI/ADR-RES ovarian
[32] = system: OVCAR-3 ovarian
[33] = system: OVCAR-4 ovarian
[34] = system: OVCAR-5 ovarian
[35] = system: OVCAR-8 ovarian
[36] = system: PC-3 prostate
[37] = system: RPMI-8226 leukemia
[38] = system: SF-268 CNS
[39] = system: SF-295 CNS
[40] = system: SF-539 CNS
[41] = system: SK-MEL-2 melanoma
[42] = system: SK-MEL-28 melanoma
[43] = system: SK-MEL-5 melanoma
[44] = system: SK-OV-3 ovarian
[45] = system: SNB-19 CNS
[46] = system: SR leukemia
[47] = system: SW-620 colon
[48] = system: T-47D breast
[49] = system: U251 CNS
[50] = system: UACC-257 melanoma
[51] = system: UACC-62 melanoma
[52] = system: UO-31 renal
[53] = system: HOP-92 NSCLC
[54] = system: MDA-MB-231 breast
[55] = system: NCI-H226 lung
[56] = system: RXF 393 renal
[57] = system: SN12C renal
[58] = system: TK-10 renal

Molecule `O=C(Nc1ccccc1F)c1cc2ccc(O)cc2oc1=Nc1cccc(F)c1` has a TGI [1] of 30 µM, a TGI [2] of 43.8 µM and a TGI [3] of 33.7 µM. For the same molecule, the TGI [4] was 29.5 µM, the TGI [5] was 39.4 µM and the TGI [6] was 40.6 µM. For the same molecule, the TGI [7] was 15.3 µM, the TGI [8] was 77.3 µM and the TGI [9] was 40.5 µM. It also gave a TGI [10] of 35.2 µM, a TGI [11] of 33.8 µM and a TGI [12] of 24.8 µM. The TGI [13] was 24.4 µM, the TGI [14] was 27 µM and the TGI [15] was 38.6 µM. It also gave a TGI [16] of 84.4 µM, a TGI [17] greater than 100 µM and a TGI [18] of 14.6 µM. The TGI [19] was 79.3 µM, the TGI [20] was 44.7 µM and the TGI [21] was 22.9 µM. For the same molecule, the TGI [22] was 38.6 µM, the TGI [23] was 98.7 µM and the TGI [24] was 95.1 µM. It also gave a TGI [25] of 35.7 µM, a TGI [26] of 43.3 µM and a TGI [27] of 44.6 µM. For the same molecule, the TGI [28] was 5.36 µM, the TGI [29] was 57.3 µM and the TGI [30] was greater than 100 µM. The TGI [31] was 43 µM, the TGI [32] was 33.1 µM and the TGI [33] was 53.6 µM. The TGI [34] was 71 µM, the TGI [35] was 23.8 µM and the TGI [36] was 48 µM. It also gave a TGI [37] greater than 100 µM, a TGI [38] of 79.1 µM and a TGI [39] of 18.5 µM. The TGI [40] was 42.7 µM, the TGI [41] was 62.6 µM and the TGI [42] was 38.7 µM. The TGI [43] was 18 µM, the TGI [44] was greater than 100 µM and the TGI [45] was greater than 100 µM. For the same molecule, the TGI [46] was 49.2 µM, the TGI [47] was 32.6 µM and the TGI [48] was 39.3 µM. It also gave a TGI [49] of 29.8 µM, a TGI [50] of 65.6 µM and a TGI [51] of 29.6 µM. For the same molecule, the TGI [52] was 29.3 µM.
`C1CSCCCSCCCSCCCSCCCSCCCSCCCSCCCSC1` showed a TGI [1] greater than 100 µM, a TGI [2] greater than 100 µM and a TGI [3] greater than 100 µM. The TGI [4] was greater than 100 µM, the TGI [5] was greater than 100 µM and the TGI [6] was greater than 100 µM. The TGI [7] was greater than 100 µM, the TGI [8] was greater than 100 µM and the TGI [9] was greater than 100 µM. It also gave a TGI [10] greater than 100 µM, a TGI [11] greater than 100 µM and a TGI [12] greater than 100 µM. The TGI [13] was greater than 100 µM, the TGI [14] was greater than 100 µM and the TGI [15] was greater than 100 µM. It also gave a TGI [53] greater than 100 µM, a TGI [16] greater than 100 µM and a TGI [17] greater than 100 µM. For the same molecule, the TGI [18] was greater than 100 µM, the TGI [19] was greater than 100 µM and the TGI [20] was greater than 100 µM. It also gave a TGI [21] greater than 100 µM, a TGI [22] greater than 100 µM and a TGI [23] greater than 100 µM. The TGI [24] was greater than 100 µM, the TGI [54] was greater than 100 µM and the TGI [25] was greater than 100 µM. For the same molecule, the TGI [26] was greater than 100 µM, the TGI [27] was greater than 100 µM and the TGI [55] was greater than 100 µM. It also gave a TGI [28] greater than 100 µM, a TGI [29] greater than 100 µM and a TGI [30] greater than 100 µM. The TGI [31] was greater than 100 µM, the TGI [32] was greater than 100 µM and the TGI [33] was greater than 100 µM. It also gave a TGI [34] greater than 100 µM, a TGI [35] greater than 100 µM and a TGI [36] greater than 100 µM. The TGI [37] was greater than 100 µM, the TGI [56] was greater than 100 µM and the TGI [38] was greater than 100 µM. It also gave a TGI [39] greater than 100 µM, a TGI [40] greater than 100 µM and a TGI [41] greater than 100 µM. It also gave a TGI [42] greater than 100 µM, a TGI [43] greater than 100 µM and a TGI [44] greater than 100 µM. For the same molecule, the TGI [57] was greater than 100 µM, the TGI [45] was greater than 100 µM and the TGI [47] was greater than 100 µM. It also gave a TGI [48] greater than 100 µM, a TGI [58] greater than 100 µM and a TGI [49] greater than 100 µM. The TGI [50] was greater than 100 µM and the TGI [52] was greater than 100 µM.
